Experimental data taken from patent US20240139149A1, “THERAPEUTIC USES OF UROLITHIN DERIVATIVES” (Vandria SA, priority 2022, published 2024).

Columns and labels:
APTK-OVA tumors = assay: Adoptive transfer of UA-conditioned OT-1 T cells into Rag1−/− mice; format: in vivo, mouse; conditions: seven days after transfer into Rag1−/− mice, T cells cultured 48 hours with UA
Experimental: For adoptive cell transfer, purified splenic T cell from OT1 mice were isolated and activated using αCD3/αCD28 stimulation beads for 48 h. After magnetic bead removal, 1×10^6 T of activated T cell were intravenously injected into Rag1−/− recipients. To study survival of transferred T cells, stimulated OT-1 T cells were injected into mice without tumors. Subsequently, after 7 days, spleens were isolated and splenocytes were stained for the CD8+ subsets as described below. To understand antitumor immunity conferred by transferred OT-1 lymphocytes, cells were injected into mice carrying APTK-OVA tumors 10 days after subcutaneous organoid transplantation. Tumor growth was assessed as described above. Mice were kept under regular chow food for the T cell adoptive transfer experiment and sacrificed collectively when maximum tumor diameter extended 1.5 cm.
Tumors were minced and digested with Tumor & Tissue Dissociation Reagent (BD Horizon) for 30 min. The remaining organ pieces were filtered through a 70 µm cell strainer. Cells were then washed with PBS 1% BSA and 2 mM EDTA. Immune cells were enriched on a 30%/40%/75% Percoll gradient after a 1700 rpm 17 min centrifugation. Then, tumor immune filtrates or activated T cells were stained with Fixable Viability Dye-eF780 (65-0865-14; eBioscience), αCD45-FITC (30-F11; 11-0451-85; eBioscience), αCD11b-BV650 (M1/70; 56340; BD) α-CD11c-BV785 (HL3; 563735; BD), aLy6G-BV605 (53-6.7; 563005; BD), aLy6C-AF700 (HK1.4; 128024; Biolegend), aF4/80-PE (BM8; 12-4801-82, eBioscience), aPD-L1-PECy7 (MIH5; 25-5982-80, eBioscience); or with Fixable Viability Dye-eF780 (ebioscience), αCD45-BV786 (30-F11; 564225; BD), αCD4-BUV496 (GK1.5; 564667; BD), αCD8-BV605 (100744; Biolegend), aPD1-APC (J43; 17-9985-82; eBioscience), aTIM-3-PECy7 (RMT3-23; 119715; Biolegend), aCTLA4-PE (UC10-4B9; 106305; Biolegend) and aLag3-BV421 (C9B7W; 125221, Biolegend); or with Fixable Viability Dye-eF780 (eBioscience), αCD4-FITC (H129.19; 553650; BD), αCD8-APC (53-6.7; 17-0081-83; eBioscience), αCD44-AF400 (IM7; 103026; Biolegend), αCD62L-BV785 (MEL-14; 104440; Biolegend), αSca-1-PerCP-Cy5.5 (D7; 45-5981-82; eBioscience), αCD95-PE (Jo2; 554258; BD); or with Fixable Viability Dye-eF780 (eBioscience), αCD8-BV650 (53-6.7; 563234; BD), αCD4-BUV496 (GK1.5; 564667; BD), αCD127-APC (A7R34; 17-1271-82; eBioscience), αCD95-FITC (SA367H8;152605; Biolegend), αCD44-AF400 (IM7; 103026; Biolegend), αCD62L-BV785 (MEL-14; 104440; Biolegend), αSca-1-PerCP-Cy5.5 (D7; 45-5981-82; eBioscience) followed by intracellular staining of aTCF1-PE (S33-966; 564217; BD), or PGC-1α (sc-518025; D-5; santa cruz), or aCyclinD1 (MA5-28534, DCS-6; Invitrogen) with transcription factor buffer set kit (BD Biosciences). To study cytokine expression, tumor immune infiltrates were stimulated ex vivo with 20 ng/mL PMA and […] Ionomycin (Sigma) for 3 h in T cell activation medium with Brefeldin A (Biolegend). For T cell in vitro activation experiments over several days, Brefeldin A was added to the medium for the last 3 hours. Cells were then stained with Fixable Viability Dye-eF780 (eBioscience), αCD8-PeCy7 (53.6-7; 100722; Biolegend), αCD4-AF700 (GK1.5; 100429; Biolegend), and intracellular staining for cytokine assessment was performed with BD Cytofix/Cytoperm (BD) with 20 min fixation and overnight incubation with αGranzyme B-FITC (GB11; 515403; Biolegend), αIFNγ-PerCPCy5.5 (XMG1.2; 45-7311-82; eBioscience) and αTNFa-BV711 (MP6-XT22; 563944; BD). For flow cytometric analysis of mitochondria and lysosomes 500 μl of Mitotracker Red (200 nM; ThermoFisher) or Lysotracker Red DND-99 (75 nM; ThermoFisher) were applied followed by surface staining. To study changes in mitochondrial membrane potential, Mitoprobe TMRM kit (ThermoFisher) was used according to the manufacturer's instructions. Cell proliferation was assessed by CellTrace Violet (Invitrogen, C34557) at a concentration of […] according to manufacturer's instructions. […]

[1] = system: rat model of heart failure; assay: Rat model of heart failure after myocardial infarction (LAD ligation), echocardiography; format: in vivo
Text: Generation of a rat model of cardiac impairment following myocardial infarction Fifty (50) Wistar male rats from Janvier Labs (France), 6-week-old (200-224 g on the day of arrival), were included in this study. Acclimatization of animals lasted at least 5 days. During the study, animals had free access to food and drinking water ad libitum.
Myocardial infarction (MI) was induced by chronic left anterior descending coronary artery (LAD) ligation performed at DO. Rats were anesthetized with an intraperitoneal (IP) injection of Medetomidine (0.5 mg/kg) and Ketamine (50 mg/kg), intubated and ventilated at 10 mL/kg tidal volume and 70-80 cycles/min. Body temperature was maintained between 36.5° C. and 37.5° C. via a thermoregulated heating pad connected to a rectal probe. A left lateral thoracotomy was carefully performed so as to expose the heart. Then, a suture was placed around the LAD (4/0 Silk, Ethicon), around 2 mm below the left atrium and close to the interventricular junction, in order to obtain infarct size (IS) near 40% of the total left ventricular (LV) area. Chest was closed, air was expelled from the rib cage to avoid pneumothorax and quick reanimation was performed using atipamezole hydrochloride (IM, 0.5 mg/mL, Zoetis). A peri-operative care of the animals was performed during the surgery: • Pre-operative care by one carprofen injection (SC, 5 mg/kg, Pfizer) and one lidocaine injection on the site of incision (SC, 4 mg/kg, Vetoquinol). • Post-operative care: 3 injections of buprenorphine (SC, 0.01 mg/kg, Axience) administered after awakening and during the first 24 hours after the surgery.
Rats underwent transthoracic echocardiographic examination in order to assess cardiac morphology and function in a noninvasively way. […]
Left ventricle (LV) function was assessed using ejection fraction (EF), calculated as follow: […]
Statistical analysis was performed with the Graphpad 6 software. […] First, differences were assessed between Sham/Vehicle and MI/Vehicle using an unpaired ttest followed by the appropriate post-hoc test. […]

mouse T lymphocytes [2] = assay: Proportion of mouse T memory stem cells (Tscm); format: cell-based; conditions: 2 μM, 72 h
Experimental: T cells were isolated and stimulated as described in Example 14.
Tscm represent a subset of minimally differentiated T cells, which share a CD44^loCD62L^hi phenotype with naïve T cells, but are phenotypically distinct by expressing high levels of Sca1 (Gattinoni et al., 2009). Tscm are therefore identified as CD44^−CD62L^+Sca1^hi cells.
(§1) Flow cytometry and analysis was performed as described in Example 14.

mouse T lymphocytes [3] = assay: Mitochondrial content (Mitotracker positive cells) in mouse T lymphocytes; format: cell-based; conditions: 2 μM, 72 h; for percentage of Mitotracker positive cells: DMSO 44%
Experimental: Splenic murine T cells were isolated from mice aged 6-20 weeks by negative selection with EasySep mouse T cell isolation kit (Stem cell) according to the manufacturer's instructions. T cell activation was initiated using CD3/CD28 activation beads (11456D; ThermoFisher Scientific) at a ratio of 25 μl dynabeads per 0.5×10^6 T-cells. Cells were activated with test compounds at 2 μM or DMSO in T cell activation Medium (RPMI (ThermoFisher Scientific) 10% FBS (South America origin), 10 mM Hepes (Sigma), 1× Non-Essential Amino Acid, 1 mM Sodium Pyruvate, 50 μM β-Mercaptoethanol, 100 U/ml penicillin, 100 μg/ml streptomycin and 2 mM Glutamax (ThermoFisher Scientific) for 72 h. For subsequent analysis, activating beads were magnetically removed prior staining.
For flow cytometric analysis of mitochondria 500 μl of Mitotracker Red (200 nM; ThermoFisher) was applied followed by surface staining.
Cell doublets and cells debris were excluded from the analysis by gating FSC-A vs FSC-H followed by SSC-A vs SSC-H dot plots and FSC-A vs SSC-A dot plots, respectively. eFluor 780 highly positive cells, i.e, dead cells, were gated out of the analysis. Data was acquired on Canto II (BD), Fortessa (BD) and Aurora (Cytek) cytometers and analyzed with FlowJo.

human T lymphocytes = assay: Proportion of human T memory stem cells (Tscm); format: cell-based
Text: Human peripheral blood mononuclear cells were purified with a Ficoll-Paque (GE healthcare) gradient. T cells were enriched with EasySep Human T Cell Isolation Kit (StemCell) and activated with dynabead Human T-Activator CD3/CD28 for T Cell Expansion and Activation Kit (11131D; ThermoFisher Scientific). Cells were activated with compound 66 at the indicated concentration or DMSO. Tscm cells are identified and counted based on the expression of five different markers: CD45RA^+CCR7^HiCD62L^+CD95^+CD8^+.
Human peripheral blood mononuclear cells were purified with a Ficoll-Paque (GE healthcare) gradient. T cells were enriched with EasySep Human T Cell Isolation Kit (StemCell) and activated with dynabead Human T-Activator CD3/CD28 for T Cell Expansion and Activation Kit (11131D; ThermoFisher Scientific). Cells were activated with the 77 at 400 nM or DMSO.
Staining was performed as described in Example 15.
as §1

[4] = MI rats, 0.5 mg/kg oral gavage, Month 2, M-mode, vs MI/Vehicle

SMILES | number of engrafted CD8+ T cells (APTK-OVA tumors) | LV systolic dysfunction induced by MI ([1]; 0.5 mg/kg, 2 months after LAD ligation) | ejection fraction (EF) [1, 4] | fractional shortening (FS) [1, 4] | increase in the percentage of Tscm in CD8+ cells vs DMSO (mouse T lymphocytes [2]) [%] | percentage of Tscm in CD8+ cells (mouse T lymphocytes [2]; DMSO 16.7%) [%] | increase in the percentage of Mitotracker positive cells vs DMSO (mouse T lymphocytes [3]) [%] | percentage of Mitotracker positive cells (mouse T lymphocytes [3]) [%] | Tscm proportion of CD3+ lymphocytes (human T lymphocytes; indicated concentration vs DMSO) | increase in Tscm proportion of CD8+ lymphocytes (human T lymphocytes; 400 nM, 72 h, vs DMSO) [fold]
O=c1oc2cc(O)ccc2c2ccc(O)cc12 [Urolithin A] | significantly higher |  |  |  |  |  |  |  |  | 
O=C1OCc2cc(O)ccc2-c2ccc(O)cc21 [compound 66, 3,9-dihydroxydibenzo[c,e]oxepin-5(7H)-one] |  | able to prevent | significant increases | significant increases | 69 | 28.2 | 27.5 | 56.1 | significant increase | 
CN1C(=O)Cc2cc(O)ccc2-c2ccc(O)cc21 [compound 77, 3,9-dihydroxy-5-methyl-5,7-dihydro-6H-dibenzo[b,d]azepin-6-one] |  |  |  |  |  |  | 43.4 | 63.1 |  | ~3
